Results published in ChEMBL document CHEMBL5532655, “Discovery of (R)-4-(8-methoxy-2-methyl-1-(1-phenylethy)-1H-imidazo[4,5-c]quinnolin-7-yl)-3,5-dimethylisoxazole as a potent and selective BET inhibitor for treatment of acute myeloid leukemia (AML) guided by FEP calculation” (Eur J Med Chem, 2024).

What was measured:
[1] = biological target: Bromodomain testis-specific protein (Homo sapiens) (UniProt Q58F21); test: Binding affinity to BRDT BD1 (unknown origin) using biotinylated histone peptide H4 as substrate at 1 uM incubated for 2 hrs by AlphaScreen assay relative to control
[2] = biological target: Histone acetyltransferase p300 (Homo sapiens) (UniProt Q09472); test: Binding affinity to EP300 (unknown origin) using biotinylated histone peptide H4 as substrate at 1 uM incubated for 2 hrs by AlphaScreen assay relative to control
Histone acetyltransferase p300 (Homo sapiens), sequence (Q09472 whole entry): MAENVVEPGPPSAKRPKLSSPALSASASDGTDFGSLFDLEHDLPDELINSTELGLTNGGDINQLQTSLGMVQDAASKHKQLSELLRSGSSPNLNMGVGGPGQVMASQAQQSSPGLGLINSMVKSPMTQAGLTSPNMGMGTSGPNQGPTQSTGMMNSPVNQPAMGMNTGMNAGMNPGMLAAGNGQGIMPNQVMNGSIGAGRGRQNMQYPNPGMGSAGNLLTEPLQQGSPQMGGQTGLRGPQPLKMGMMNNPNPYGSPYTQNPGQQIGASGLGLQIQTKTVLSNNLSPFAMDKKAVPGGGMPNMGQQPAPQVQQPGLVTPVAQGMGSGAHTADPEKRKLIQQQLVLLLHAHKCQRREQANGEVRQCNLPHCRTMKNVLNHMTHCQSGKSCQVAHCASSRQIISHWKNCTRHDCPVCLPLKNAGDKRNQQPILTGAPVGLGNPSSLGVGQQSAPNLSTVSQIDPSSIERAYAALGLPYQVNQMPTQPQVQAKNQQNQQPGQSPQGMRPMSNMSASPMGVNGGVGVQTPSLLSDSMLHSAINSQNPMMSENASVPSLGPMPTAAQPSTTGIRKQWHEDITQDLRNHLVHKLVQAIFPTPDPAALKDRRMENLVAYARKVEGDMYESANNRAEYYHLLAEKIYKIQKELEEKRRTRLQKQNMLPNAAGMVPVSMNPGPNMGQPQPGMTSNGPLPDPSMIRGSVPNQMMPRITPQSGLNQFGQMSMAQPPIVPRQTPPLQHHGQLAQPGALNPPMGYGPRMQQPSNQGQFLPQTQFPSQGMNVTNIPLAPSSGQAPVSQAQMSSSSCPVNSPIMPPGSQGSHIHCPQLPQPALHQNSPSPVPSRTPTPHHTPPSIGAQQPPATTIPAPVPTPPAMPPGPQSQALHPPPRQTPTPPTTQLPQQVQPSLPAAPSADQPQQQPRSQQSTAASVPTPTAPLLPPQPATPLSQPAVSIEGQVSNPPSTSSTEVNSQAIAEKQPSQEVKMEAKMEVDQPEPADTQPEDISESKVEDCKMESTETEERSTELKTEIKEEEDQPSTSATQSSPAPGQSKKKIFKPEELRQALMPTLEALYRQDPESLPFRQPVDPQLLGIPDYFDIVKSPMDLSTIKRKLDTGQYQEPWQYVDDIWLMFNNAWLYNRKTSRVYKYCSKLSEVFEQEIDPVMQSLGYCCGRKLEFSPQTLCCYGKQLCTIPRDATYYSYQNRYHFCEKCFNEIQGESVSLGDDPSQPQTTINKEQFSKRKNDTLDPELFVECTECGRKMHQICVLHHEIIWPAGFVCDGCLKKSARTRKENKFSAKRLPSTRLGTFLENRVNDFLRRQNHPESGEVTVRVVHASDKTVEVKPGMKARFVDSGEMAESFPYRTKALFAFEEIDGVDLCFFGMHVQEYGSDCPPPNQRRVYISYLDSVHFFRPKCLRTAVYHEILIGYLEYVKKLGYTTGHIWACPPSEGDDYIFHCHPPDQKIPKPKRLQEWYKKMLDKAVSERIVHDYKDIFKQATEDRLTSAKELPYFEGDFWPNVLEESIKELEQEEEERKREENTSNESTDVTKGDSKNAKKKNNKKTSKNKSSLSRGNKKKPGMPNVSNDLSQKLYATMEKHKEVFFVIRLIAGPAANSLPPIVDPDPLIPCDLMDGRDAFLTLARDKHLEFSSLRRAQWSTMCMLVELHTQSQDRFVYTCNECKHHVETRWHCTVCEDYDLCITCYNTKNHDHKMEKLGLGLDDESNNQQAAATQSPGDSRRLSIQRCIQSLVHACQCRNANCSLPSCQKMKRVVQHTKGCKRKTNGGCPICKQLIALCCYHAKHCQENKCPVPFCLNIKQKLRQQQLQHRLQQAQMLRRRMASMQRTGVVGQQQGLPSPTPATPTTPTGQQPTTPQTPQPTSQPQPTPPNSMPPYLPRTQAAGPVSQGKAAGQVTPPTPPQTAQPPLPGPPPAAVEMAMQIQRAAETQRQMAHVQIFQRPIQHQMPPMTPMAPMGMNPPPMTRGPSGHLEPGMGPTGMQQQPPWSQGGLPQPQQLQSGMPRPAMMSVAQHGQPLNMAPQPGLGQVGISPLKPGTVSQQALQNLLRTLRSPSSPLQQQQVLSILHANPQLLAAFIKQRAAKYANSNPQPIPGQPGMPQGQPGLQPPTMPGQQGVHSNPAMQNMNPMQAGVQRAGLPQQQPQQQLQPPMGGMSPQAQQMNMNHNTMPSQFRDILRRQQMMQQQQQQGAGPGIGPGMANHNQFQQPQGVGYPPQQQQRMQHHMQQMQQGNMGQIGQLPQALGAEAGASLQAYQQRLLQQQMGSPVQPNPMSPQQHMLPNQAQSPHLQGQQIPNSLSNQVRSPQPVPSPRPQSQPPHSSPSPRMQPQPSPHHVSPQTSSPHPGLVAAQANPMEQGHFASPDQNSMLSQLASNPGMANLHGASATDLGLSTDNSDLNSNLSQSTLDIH

[3] = biological target: T1, Bromodomain-containing protein 9 (Homo sapiens) (UniProt Q9H8M2); test: Binding affinity to BRD9 (unknown origin) using biotinylated histone peptide H4 as substrate at 1 uM incubated for 2 hrs by AlphaScreen assay relative to control
T1 sequence (whole entry): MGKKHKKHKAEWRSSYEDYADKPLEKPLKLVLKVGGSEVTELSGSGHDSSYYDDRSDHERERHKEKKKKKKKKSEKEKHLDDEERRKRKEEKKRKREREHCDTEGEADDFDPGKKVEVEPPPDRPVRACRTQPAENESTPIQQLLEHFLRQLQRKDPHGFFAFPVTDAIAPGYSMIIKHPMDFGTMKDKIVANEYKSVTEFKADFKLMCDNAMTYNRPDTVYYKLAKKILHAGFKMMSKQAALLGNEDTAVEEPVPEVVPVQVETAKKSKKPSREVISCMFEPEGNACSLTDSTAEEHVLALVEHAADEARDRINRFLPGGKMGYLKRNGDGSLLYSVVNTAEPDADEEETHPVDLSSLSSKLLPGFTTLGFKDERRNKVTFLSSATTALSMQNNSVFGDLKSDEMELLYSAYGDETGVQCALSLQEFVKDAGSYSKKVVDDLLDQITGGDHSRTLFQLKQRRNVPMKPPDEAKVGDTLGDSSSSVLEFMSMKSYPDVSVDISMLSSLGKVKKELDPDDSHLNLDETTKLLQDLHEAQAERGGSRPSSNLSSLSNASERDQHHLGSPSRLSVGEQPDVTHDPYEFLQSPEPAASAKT

[4] = biological target: T2, Bromodomain-containing protein 7 (Homo sapiens) (UniProt Q9NPI1); test: Binding affinity to BRD7 (unknown origin) using biotinylated histone peptide H4 as substrate at 1 uM incubated for 2 hrs by AlphaScreen assay relative to control
T2 sequence (whole entry): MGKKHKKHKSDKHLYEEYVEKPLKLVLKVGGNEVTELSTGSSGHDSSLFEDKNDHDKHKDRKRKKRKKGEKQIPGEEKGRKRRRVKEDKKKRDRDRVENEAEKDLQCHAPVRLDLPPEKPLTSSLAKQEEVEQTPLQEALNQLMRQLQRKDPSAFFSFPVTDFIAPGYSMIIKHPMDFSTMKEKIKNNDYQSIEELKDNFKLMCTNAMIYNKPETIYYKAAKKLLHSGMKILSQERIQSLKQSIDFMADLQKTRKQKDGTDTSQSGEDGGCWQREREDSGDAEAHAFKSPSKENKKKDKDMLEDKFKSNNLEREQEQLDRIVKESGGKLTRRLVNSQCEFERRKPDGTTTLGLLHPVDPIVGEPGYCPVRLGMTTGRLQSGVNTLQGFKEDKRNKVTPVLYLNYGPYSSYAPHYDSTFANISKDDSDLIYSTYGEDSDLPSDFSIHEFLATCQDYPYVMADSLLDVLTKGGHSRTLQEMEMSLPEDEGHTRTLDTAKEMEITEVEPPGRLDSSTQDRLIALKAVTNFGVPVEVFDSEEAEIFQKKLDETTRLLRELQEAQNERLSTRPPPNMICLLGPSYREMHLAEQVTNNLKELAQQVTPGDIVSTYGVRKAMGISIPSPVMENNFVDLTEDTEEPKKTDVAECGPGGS

[5] = biological target: Histone acetyltransferase p300 (Homo sapiens) (UniProt Q09472); details: time 30.0 min
Homo sapiens = species on record: Homo sapiens; details: time 30.0 min
[6] = biological target: Chromatin remodeling regulator CECR2 (Homo sapiens) (UniProt Q9BXF3); details: time 30.0 min
[7] = biological target: Histone acetyltransferase KAT2B (Homo sapiens) (UniProt Q92831); details: time 30.0 min
Histone acetyltransferase KAT2B (Homo sapiens), sequence (Q92831 whole entry, looked up): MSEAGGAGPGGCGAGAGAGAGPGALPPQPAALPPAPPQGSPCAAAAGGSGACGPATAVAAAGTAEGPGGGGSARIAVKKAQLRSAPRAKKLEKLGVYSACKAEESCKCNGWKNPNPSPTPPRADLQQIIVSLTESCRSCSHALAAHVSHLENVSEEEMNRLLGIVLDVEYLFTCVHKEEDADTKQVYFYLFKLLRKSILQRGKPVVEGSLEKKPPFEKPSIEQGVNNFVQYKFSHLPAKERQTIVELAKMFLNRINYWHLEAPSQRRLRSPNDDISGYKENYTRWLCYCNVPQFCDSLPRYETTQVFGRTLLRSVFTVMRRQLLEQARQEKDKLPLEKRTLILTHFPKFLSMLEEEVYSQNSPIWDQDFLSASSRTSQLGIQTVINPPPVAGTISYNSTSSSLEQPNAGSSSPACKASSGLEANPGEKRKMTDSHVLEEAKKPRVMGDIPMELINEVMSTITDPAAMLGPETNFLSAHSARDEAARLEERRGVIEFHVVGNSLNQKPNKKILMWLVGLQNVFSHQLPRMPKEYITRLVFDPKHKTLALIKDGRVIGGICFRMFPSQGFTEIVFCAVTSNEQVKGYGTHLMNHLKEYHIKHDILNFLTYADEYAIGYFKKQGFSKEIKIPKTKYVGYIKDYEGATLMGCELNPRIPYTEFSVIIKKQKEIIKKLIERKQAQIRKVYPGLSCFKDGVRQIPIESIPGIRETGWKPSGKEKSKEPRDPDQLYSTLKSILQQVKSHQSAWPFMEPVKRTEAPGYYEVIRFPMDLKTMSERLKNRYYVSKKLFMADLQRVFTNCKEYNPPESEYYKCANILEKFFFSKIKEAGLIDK

[8] = biological target: T2, Bromodomain-containing protein 7 (Homo sapiens); details: time 30.0 min
[9] = biological target: Transcription initiation factor TFIID subunit 1 (Homo sapiens) (UniProt P21675); details: time 30.0 min
Transcription initiation factor TFIID subunit 1 (Homo sapiens), sequence (P21675 whole entry): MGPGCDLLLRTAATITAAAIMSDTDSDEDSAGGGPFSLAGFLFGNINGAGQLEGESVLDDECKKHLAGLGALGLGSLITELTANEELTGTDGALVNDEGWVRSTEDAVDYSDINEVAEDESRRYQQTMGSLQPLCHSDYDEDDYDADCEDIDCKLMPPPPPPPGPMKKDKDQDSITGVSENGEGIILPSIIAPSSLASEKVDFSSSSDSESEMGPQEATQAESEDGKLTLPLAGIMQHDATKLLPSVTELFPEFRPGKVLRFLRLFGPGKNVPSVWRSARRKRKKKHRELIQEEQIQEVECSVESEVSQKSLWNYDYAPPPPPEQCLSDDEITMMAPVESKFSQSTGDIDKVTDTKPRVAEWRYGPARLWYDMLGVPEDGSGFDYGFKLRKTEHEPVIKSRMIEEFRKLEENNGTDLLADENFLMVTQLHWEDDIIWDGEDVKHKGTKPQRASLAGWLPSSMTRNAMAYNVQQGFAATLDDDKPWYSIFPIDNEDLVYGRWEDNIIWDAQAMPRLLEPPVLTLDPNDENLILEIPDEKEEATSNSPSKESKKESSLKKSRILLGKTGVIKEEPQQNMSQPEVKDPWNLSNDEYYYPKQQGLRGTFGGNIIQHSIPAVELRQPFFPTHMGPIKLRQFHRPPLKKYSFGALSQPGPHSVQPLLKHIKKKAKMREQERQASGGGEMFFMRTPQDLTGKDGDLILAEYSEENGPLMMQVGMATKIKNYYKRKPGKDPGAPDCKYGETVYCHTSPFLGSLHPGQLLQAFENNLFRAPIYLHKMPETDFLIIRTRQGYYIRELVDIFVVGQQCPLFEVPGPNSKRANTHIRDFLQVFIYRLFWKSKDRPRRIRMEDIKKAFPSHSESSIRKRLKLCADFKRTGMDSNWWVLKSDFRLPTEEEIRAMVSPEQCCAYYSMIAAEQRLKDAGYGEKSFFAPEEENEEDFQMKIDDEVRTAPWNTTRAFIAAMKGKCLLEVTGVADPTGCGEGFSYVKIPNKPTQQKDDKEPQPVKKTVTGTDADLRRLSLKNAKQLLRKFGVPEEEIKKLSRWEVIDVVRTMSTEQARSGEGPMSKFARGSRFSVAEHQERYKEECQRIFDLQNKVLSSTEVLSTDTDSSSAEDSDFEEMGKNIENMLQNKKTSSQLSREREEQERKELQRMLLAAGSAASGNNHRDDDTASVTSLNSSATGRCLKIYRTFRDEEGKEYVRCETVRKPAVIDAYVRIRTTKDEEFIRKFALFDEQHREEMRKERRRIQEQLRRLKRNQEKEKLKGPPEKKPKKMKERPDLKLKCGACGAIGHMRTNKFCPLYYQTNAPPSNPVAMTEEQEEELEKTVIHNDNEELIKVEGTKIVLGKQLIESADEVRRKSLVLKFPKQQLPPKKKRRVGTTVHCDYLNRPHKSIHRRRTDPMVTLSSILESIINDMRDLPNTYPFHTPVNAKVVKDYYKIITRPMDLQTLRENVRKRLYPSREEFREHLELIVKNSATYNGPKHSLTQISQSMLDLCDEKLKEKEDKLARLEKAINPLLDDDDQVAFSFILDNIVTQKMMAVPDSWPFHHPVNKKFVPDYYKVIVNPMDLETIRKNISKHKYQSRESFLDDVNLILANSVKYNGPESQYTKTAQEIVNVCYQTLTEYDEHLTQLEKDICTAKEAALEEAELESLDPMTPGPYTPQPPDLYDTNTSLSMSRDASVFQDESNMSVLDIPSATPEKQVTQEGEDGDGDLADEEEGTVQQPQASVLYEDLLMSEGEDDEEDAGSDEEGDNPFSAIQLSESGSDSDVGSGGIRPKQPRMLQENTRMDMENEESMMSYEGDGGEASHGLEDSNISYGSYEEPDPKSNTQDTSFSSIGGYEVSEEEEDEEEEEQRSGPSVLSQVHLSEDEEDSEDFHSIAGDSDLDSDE

[10] = biological target: Transcription initiation factor TFIID subunit 1 (Homo sapiens) (UniProt P21675); details: time 30.0 min; remark: listed apart in the source
[11] = biological target: SWI/SNF-related matrix-associated actin-dependent regulator of chromatin subfamily A member 4 (Homo sapiens) (UniProt P51532); details: time 30.0 min
Jurkat = test: cells; details: Homo sapiens, 48 h
Description: Antiproliferative activity against human Jurkat cells assessed as inhibition of cell growth incubated for 48 hrs by MTT assay

| Activity [1] | Activity [2] | Activity [3] | Activity [4] | ΔTm [5] | ΔTm (Homo sapiens) | ΔTm [6] | ΔTm [7] | ΔTm [8] | ΔTm [9] | ΔTm [10] | ΔTm [11] | IC50 (Jurkat) | SMILES |
| --- | --- | --- | --- | --- | --- | --- | --- | --- | --- | --- | --- | --- | --- |
| 50% | < 30% | < 30% | < 30% | 0 °C | 0 °C | 0 °C | 0 °C | 0 °C | 0 °C | 0 °C | 0 °C | 730 nM | COc1cc2c(cc1-c1c(C)n[nH]c1C)ncc1nc(C)n([C@H](C)c3ccccc3)c12 |
| > 80% | > 80% | < 30% | < 30% | 5 °C | 0 °C | 0 °C | 0 °C | 0 °C | 0 °C | 0 °C | 0 °C | 2080 nM | COc1cc2c(cc1-c1c(C)noc1C)ncc1nc(C)n([C@H](C)c3ccccc3)c12 |
